US6762190B2, “Thienylalanine derivatives as inhibitors of cell adhesion” (Aventis Pharma S.A. Deutschland GmbH Genentech, Inc., priority 1999, dated 2004)

What was measured:
[1] = molecular target: 293 cells cotransfected with αv and β3 subunits of the vitronectin receptor αvβ3, binding to human vitronectin (Vn) (Homo sapiens, UniProt P05106+P06756); test: Vitronectin/293 cell test (inhibition of binding of 293 cells to human vitronectin); type: cell-based; settings: inhibition of binding of αvβ3-expressing 293 cells to human vitronectin
293 cells cotransfected with αv and β3 subunits of the vitronectin receptor αvβ3, binding to human vitronectin (Vn), sequence (P05106 whole entry): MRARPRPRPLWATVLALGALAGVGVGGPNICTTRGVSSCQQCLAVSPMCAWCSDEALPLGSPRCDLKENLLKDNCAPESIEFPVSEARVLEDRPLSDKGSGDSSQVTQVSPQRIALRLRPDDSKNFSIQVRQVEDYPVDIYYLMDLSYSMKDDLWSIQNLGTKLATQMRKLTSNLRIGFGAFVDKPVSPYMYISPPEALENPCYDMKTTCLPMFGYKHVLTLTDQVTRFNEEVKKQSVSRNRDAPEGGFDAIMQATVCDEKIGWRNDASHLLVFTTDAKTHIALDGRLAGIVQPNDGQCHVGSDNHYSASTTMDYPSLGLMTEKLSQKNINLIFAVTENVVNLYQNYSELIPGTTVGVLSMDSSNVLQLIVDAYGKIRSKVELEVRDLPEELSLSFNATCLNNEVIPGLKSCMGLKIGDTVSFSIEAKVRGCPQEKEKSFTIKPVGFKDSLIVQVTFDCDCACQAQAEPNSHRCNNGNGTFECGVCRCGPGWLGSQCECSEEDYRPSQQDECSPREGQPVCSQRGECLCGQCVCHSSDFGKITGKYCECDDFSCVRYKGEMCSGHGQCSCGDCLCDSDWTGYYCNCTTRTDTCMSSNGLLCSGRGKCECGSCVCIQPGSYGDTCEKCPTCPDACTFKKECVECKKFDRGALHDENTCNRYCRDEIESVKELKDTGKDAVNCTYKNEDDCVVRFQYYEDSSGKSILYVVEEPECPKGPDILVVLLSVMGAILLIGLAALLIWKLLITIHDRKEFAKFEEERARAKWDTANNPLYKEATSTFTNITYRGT
293 cells cotransfected with αv and β3 subunits of the vitronectin receptor αvβ3, binding to human vitronectin (Vn), sequence (P06756 whole entry): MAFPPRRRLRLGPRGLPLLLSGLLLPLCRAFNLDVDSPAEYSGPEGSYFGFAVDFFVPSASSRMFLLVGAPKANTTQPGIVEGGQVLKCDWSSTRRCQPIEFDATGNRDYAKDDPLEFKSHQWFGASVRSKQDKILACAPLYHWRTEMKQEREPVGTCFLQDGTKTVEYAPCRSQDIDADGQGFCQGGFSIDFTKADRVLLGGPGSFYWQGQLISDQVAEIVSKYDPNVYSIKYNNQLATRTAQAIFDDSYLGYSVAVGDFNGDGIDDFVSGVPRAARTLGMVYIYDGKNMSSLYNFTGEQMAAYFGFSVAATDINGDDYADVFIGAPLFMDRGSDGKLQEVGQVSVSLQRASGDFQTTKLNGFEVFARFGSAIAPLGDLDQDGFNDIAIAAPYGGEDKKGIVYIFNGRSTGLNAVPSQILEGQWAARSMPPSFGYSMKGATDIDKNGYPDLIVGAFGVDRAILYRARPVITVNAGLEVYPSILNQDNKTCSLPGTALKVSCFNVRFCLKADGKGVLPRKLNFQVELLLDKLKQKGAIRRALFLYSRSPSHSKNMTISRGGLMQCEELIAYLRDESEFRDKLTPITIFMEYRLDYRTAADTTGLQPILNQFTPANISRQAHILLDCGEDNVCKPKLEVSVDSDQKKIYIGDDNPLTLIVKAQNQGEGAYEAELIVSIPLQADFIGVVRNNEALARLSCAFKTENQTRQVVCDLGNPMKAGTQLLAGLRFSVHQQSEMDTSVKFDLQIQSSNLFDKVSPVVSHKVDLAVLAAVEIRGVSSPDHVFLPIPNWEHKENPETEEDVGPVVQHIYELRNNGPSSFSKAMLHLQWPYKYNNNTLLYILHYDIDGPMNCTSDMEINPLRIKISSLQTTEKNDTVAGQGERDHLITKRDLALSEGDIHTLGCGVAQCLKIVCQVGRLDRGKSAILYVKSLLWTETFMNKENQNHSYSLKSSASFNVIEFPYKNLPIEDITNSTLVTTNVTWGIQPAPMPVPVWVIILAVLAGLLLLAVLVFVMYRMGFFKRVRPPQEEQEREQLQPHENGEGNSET
Method: 2) Vitronectin/293 Cell Test
In this test the inhibition of binding of 293 cells to human vitronectin (Vn) by the compounds of the invention is determined (the test method is abbreviated as “Vn/293 cell test” in the listing of the test results).
Purification of Human Vitronectin
Human vitronectin was isolated from human plasma and purified by affinity chromatography according to the method of Yatohgo et al., Cell Structure and Function 23 (1988) 281.
293 cells, a human embryonic kidney cell line, which were cotransfected with DNA sequences for the αv and β3 subunits of the vitronectin receptor αvβ3, were selected for a high rate of expression (>500,000 αvβ3 receptors/cell) according to the FACS method. The selected cells were cultured and sorted again by means of FACS in order to obtain a stable cell line (15 D) with expression rates >1,000,000 copies of αvβ3 per cell.
A Linbro 96-well tissue culture plate with a flat bottom was coated overnight at 4° C. with human vitronectin (0.01 mg/ml, 0.05 ml/well) in phosphate-buffered saline solution (PBS) and then blocked with 0.5% strength BSA (bovine serum albumin). Solutions of the test substances from 10^−10 mol/l to 2×10^−3 mol/l in glucose-containing DMEM medium were prepared and 0.05 ml/well of the solution were added to the plate in each case. The cells which expressed high levels of αvβ3 (for example 15 D) were suspended in glucose-containing DMEM medium and the suspension was adjusted to a content of 25,000 cells/0.05 ml of medium. 0.05 ml of this cell suspension was added to each well and the plate was incubated at 37° C. for 90 min. The plate was washed 3 times with warm PBS in order to remove unbound cells. The bound cells were lyzed in citrate buffer (25 mM, pH 5.0) which contained 0.25% Triton X-100. The hexoseamidase substrate p-nitrophenyl-N-acetyl-β-D-glucosaminide was then added and the plate was incubated at 37° C. for 90 min. The reaction was stopped with a glycine (50 mM)/EDTA (5 mM) buffer (pH 10.4) and the absorption of each well was measured at 405 to 650 nm. The data were analyzed according to standard methods.

[2] = molecular target: T1, human vitronectin receptor (VnR) αvβ3 (Homo sapiens, UniProt P05106+P06756); test: Kistrin binding assay (αvβ3 ELISA test, K/VnR); settings: inhibition of binding of kistrin to human vitronectin receptor
T1 construct: Human vitronectin receptor was obtained from the human placenta according to the method of Pytela et al; from tissue; host or cells: human placenta
T1 sequence (P06756 31-889 limits assumed): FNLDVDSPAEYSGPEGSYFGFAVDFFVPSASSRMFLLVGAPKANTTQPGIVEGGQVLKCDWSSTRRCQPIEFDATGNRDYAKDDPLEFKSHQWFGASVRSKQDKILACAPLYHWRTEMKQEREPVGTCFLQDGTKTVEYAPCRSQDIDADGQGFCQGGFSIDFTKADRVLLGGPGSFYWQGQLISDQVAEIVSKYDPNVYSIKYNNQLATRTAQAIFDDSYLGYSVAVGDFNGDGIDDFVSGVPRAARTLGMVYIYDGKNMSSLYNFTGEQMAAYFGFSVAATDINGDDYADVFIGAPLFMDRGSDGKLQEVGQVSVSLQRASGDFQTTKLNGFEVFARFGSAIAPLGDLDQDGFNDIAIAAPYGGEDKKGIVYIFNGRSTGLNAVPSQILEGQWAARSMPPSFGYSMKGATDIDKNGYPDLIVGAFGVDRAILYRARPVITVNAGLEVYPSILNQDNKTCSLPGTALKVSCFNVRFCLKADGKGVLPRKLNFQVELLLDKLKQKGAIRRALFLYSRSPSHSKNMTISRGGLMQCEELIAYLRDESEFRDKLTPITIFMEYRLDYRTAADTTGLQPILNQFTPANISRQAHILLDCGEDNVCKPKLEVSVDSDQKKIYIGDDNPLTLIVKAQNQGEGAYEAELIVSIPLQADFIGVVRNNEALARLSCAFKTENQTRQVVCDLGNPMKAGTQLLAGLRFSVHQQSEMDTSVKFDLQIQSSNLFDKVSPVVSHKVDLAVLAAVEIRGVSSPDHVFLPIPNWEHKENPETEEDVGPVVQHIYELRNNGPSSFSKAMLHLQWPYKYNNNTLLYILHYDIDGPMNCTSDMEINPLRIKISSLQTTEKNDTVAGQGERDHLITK
T1 sequence (P06756 891-1048 partner limits assumed): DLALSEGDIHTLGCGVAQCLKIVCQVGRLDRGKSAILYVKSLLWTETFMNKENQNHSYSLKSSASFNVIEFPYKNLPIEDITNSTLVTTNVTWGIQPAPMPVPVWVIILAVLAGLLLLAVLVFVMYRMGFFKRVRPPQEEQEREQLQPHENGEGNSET
T1 sequence (P05106 27-788): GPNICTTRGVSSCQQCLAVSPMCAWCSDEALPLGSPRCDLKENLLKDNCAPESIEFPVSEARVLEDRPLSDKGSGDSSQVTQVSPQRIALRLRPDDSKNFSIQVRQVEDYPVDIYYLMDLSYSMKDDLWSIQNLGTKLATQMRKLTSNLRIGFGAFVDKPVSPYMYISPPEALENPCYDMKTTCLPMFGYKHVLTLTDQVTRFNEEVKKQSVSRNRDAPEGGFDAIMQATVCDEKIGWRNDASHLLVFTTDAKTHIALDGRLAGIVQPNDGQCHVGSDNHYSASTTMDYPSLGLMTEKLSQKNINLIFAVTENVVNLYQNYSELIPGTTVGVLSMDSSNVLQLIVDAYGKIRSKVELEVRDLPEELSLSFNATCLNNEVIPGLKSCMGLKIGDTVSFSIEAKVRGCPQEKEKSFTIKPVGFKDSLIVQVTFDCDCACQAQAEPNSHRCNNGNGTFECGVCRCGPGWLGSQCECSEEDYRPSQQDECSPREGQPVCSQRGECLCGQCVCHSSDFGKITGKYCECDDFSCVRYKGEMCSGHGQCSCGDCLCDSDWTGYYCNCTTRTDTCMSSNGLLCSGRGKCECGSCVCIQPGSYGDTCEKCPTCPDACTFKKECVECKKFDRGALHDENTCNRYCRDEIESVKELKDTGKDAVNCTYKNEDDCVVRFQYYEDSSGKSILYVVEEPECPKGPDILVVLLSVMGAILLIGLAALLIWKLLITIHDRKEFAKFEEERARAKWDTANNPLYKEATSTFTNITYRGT
Excerpt: The inhibition of the binding of kistrin to human vitronectin receptor (VnR) described below is a test method by which the antagonistic action of the compounds of the invention on the vitronectin receptor αvβ3 can be determined (αvβ3 ELISA Test; the test method is abbreviated as “K/VnR” in the listing of the test results).
Kistrin was purified according to the methods of Dennis et al., as described in Proc. Natl. Acad. Sci. USA 87 (1989) 2471 and Proteins: Structure, Function and Genetics 15(1993)312.
Purification of Human Vitronectin Receptor (αvβ3)
Human vitronectin receptor was obtained from the human placenta according to the method of Pytela et al., Methods Enzymol. 144 (1987) 475. Human vitronectin receptor αvβ3 can also be obtained from some cell lines (for example from 293 cells, a human embryonic kidney cell line) which are cotransfected with DNA sequences for both subunits αv and β3 of the vitronectin receptor. The subunits were extracted with octyl glycoside and then chromatographed through concanavalin A, heparin-Sepharose and S-300.
Murine monoclonal antibodies which are specific for the β3 subunits of the vitronectin receptor, were prepared according to the method of Newman et al., Blood (1985) 227, or by a similar process. The rabbit Fab 2 anti-mouse Fc conjugate to horseradish peroxidase (anti-mouse Fc HRP) was obtained from Pel Freeze (Catalog No. 715 305-1).
The ability of substances to inhibit the binding of kistrin to the vitronectin receptor can be determined using an ELISA test. For this purpose, Nunc 96-well microtiter plates were coated with a solution of kistrin (0.002 mg/ml) according to the method of Dennis et al., as described in Proteins: Structure, Function and Genetics 15 (1993) 312. The plates were then washed twice with PBS/0.05% Tween-20 and blocked by incubating (60 min) with bovine serum albumin (BSA, 0.5%, RIA grade or better) in buffer solution (Tris-HCl (50 mM), NaCl (100 mM), MgCl2 (1 mM), CaCl2 (1 mM), MnCl2 (1 mM), pH 7). Solutions of known inhibitors and of the test substances were prepared in concentrations from 2×10^−12 to 2×10^−6 mol/l in assay buffer (BSA (0.5%, RIA grade or better); Tris-HCl (50 mM), NaCl (100 mM), MgCl2 (1 mM), CaCl2 (1 mM), MnCl2 (1 mM), pH 7). The blocked plates were emptied, and in each case 0.025 ml of this solution which contained a defined concentration (2×10^−12 to 2×10^−6 mol/l) either of a known inhibitor or of a test substance, were added to each well. 0.025 ml of a solution of the vitronectin receptor in assay buffer (0.03 mg/ml) is pipetted into each well of the plate and the plate was incubated at room temperature for 60-180 min on a shaker. In the meantime, a solution (6 ml/plate) of a murine monoclonal antibody specific for the β3 subunit of the vitronectin receptor was prepared in assay buffer (0.0015 mg/ml). A second rabbit antibody (0.001 ml of stock solution/6 ml of the murine monoclonal anti-β3 antibody solution) which is an anti-mouse Fc HRP antibody conjugate was added to this solution, and this mixture of murine anti-β3 antibody and rabbit anti-mouse Fc HRP antibody conjugate was incubated during the time of the receptor-inhibitor incubation. The test plates were washed four times with PBS solution which contains 0.05% Tween-20, and in each case 0.05 ml/well of the antibody mixture was pipetted into each well of the plate and incubated for 60-180 min. The plate was washed four times with PBS/0.05% Tween-20 and then developed with 0.05 ml/well of a PBS solution which contained 0.67 mg/ml of o-phenylenediamine and 0.012% of H2O2. Alternatively to this, o-phenylenediamine can be employed in a buffer (pH 5) which contains Na3PO4 and citric acid. The color development was stopped using 1 N H2SO4 (0.05 ml/well). The absorption for each well was measured at 492-405 nm and the data were evaluated by standard methods.

O=C(CCCCc1ccc(C[C@H](NS(=O)(=O)c2cccc3ccccc23)C(=O)O)s1)NC1=NCCCN1 [Example 1, (2S)-2-(Naphthalene-1-sulfonylamino)-3-(5-(4-(1,4,5,6-tetrahydropyrimidin-2-ylcarbamoyl)-butyl)-thiophen-2-yl)-propionic Acid]
IC50 [1]: 420 nM | IC50 [2]: 23 nM

O=C(CCCCc1ccc(C[C@H](NS(=O)(=O)c2ccc3ccccc3c2)C(=O)O)s1)NC1=NCCCN1 [Example 2, (2S)-2-(Naphthalene-2-sulfonylamino)-3-(5-(4-(1,4,5,6-tetrahydropyrimidin-2-ylcarbamoyl)-butyl)-thiophen-2-yl)-propionic acid]
IC50 [1]: 330 nM | IC50 [2]: 15 nM

O=C(CCCCc1ccc(C[C@H](NS(=O)(=O)c2ccccc2)C(=O)O)s1)NC1=NCCCN1 [Example 3, (2S)-2-Benzenesulfonylamino-3-(5-(4-(1,4,5,6-tetrahydropyrimidin-2-ylcarbamoyl)-butyl)-thiophen-2-yl)-propionic acid]
IC50 [1]: 1000 nM | IC50 [2]: 9.5 nM

O=C(CCCCc1ccc(C[C@H](NS(=O)(=O)c2ccc(Cl)cc2)C(=O)O)s1)NC1=NCCCN1 [Example 4, (2S)-2-(4-Chlorobenzenesulfonylamino)-3-(5-(4-(1,4,5,6-tetrahydropyrimidin-2-ylcarbamoyl)-butyl)-thiophen-2-yl)-propionic acid]
IC50 [1]: 850 nM | IC50 [2]: 12 nM

O=C(CCCCc1ccc(C[C@H](NS(=O)(=O)c2cccc(Cl)c2)C(=O)O)s1)NC1=NCCCN1 [Example 5, (2S)-2-(3-Chlorobenzenesulfonylamino)-3-(5-(4-(1,4,5,6-tetrahydropyrimidin-2-ylcarbamoyl)-butyl)-thiophen-2-yl)-propionic acid]
IC50 [1]: 420 nM | IC50 [2]: 15 nM

O=C(CCCCc1ccc(C[C@H](NS(=O)(=O)c2ccc(C(F)(F)F)cc2)C(=O)O)s1)NC1=NCCCN1 [Example 6, (2S)-3-(5-(4-(1,4,5,6-Tetrahydropyrimidin-2-ylcarbamoyl)-butyl)-thiophen-2-yl)-2-(4-trifluoromethylbenzenesulfonylamino)-propionic acid]
IC50 [1]: 2000 nM | IC50 [2]: 28 nM

O=C(CCCCc1ccc(C[C@H](NS(=O)(=O)CC(F)(F)F)C(=O)O)s1)NC1=NCCCN1 [Example 7, (2S)-3-(5-(4-(1,4,5,6-Tetrahydropyrimidin-2-ylcarbamoyl)-butyl)-thiophen-2-yl)-2-(2,2,2-trifluoroethanesulfonylamino)-propionic acid]
IC50 [1]: 400 nM | IC50 [2]: 11 nM

CCCS(=O)(=O)N[C@@H](Cc1ccc(CCCCC(=O)NC2=NCCCN2)s1)C(=O)O [Example 8, (2S)-2-(Propane-1-sulfonylamino)-3-(5-(4-(1,4,5,6-tetrahydropyrimidin-2-ylcarbamoyl)-butyl)-thiophen-2-yl)-propionic acid]
IC50 [1]: 1000 nM | IC50 [2]: 60 nM

CCCCS(=O)(=O)N[C@@H](Cc1ccc(CCCCC(=O)NC2=NCCCN2)s1)C(=O)O [Example 9, (2S)-2-(Butane-1-sulfonylamino)-3-(5-(4-(1,4,5,6-tetrahydropyrimidin-2-ylcarbamoyl)-butyl)-thiopen-2-yl)-propionic acid]
IC50 [1]: 1800 nM | IC50 [2]: 46 nM

CC(C)(C)c1ccc(S(=O)(=O)N[C@@H](Cc2ccc(CCCCC(=O)NC3=NCCCN3)s2)C(=O)O)cc1 [Example 10, (2S)-2-(4-tert-Butylbenzenesulfonylamino)-3-(5-(4-(1,4,5,6-tetrahydropyrimidin-2-ylcarbamoyl)-butyl)-thiophen-2-yl)-propionic acid]
IC50 [1]: 6900 nM | IC50 [2]: 95 nM

O=C(CCCCc1ccc(C[C@H](NC(=O)OCc2ccccc2)C(=O)O)s1)NC1=NCCCN1 [Example 11, (2S)-2-Benzyloxycarbonylamino-3-(5-(4-(1,4,5,6-tetrahydropyrimidin-2-ylcarbamoyl)-butyl)-thiophen-2-yl)-propionic acid]
IC50 [1]: 110 nM | IC50 [2]: 9 nM

O=C(CCCCc1ccc(C[C@H](NC(=O)OCC23CC4CC(CC(C4)C2)C3)C(=O)O)s1)NC1=NCCCN1 [Example 12, (2S)-2-(Adamantan-1-ylmethoxycarbonylamino)-3-(5-(4-(1,4,5,6-tetrahydropyrimidin-2-ylcarbamoyl)-butyl)-thiophen-2-yl)-propionic acid]
IC50 [1]: 220 nM | IC50 [2]: 23 nM

O=C(CCCCCc1ccc(C[C@H](NC(=O)OCc2ccccc2)C(=O)O)s1)NC1=NCCCN1 [Example 13, (2S)-2-Benzyloxycarbonylamino-3-(5-(5-(1,4,5,6-tetrahydropyrimidin-2-ylcarbamoyl)-pentyl)-thiophen-2-yl)-propionic acid]
IC50 [1]: 210 nM | IC50 [2]: 97 nM

O=C(CCC/C=C/c1ccc(C[C@H](NC(=O)OCc2ccccc2)C(=O)O)s1)NC1=NCCCN1 [Example 14, (2S)-2-Benzyloxycarbonylamino-3-(5-(5-(1,4,5,6-tetrahydropyrimidin-2-ylcarbamoyl)-pent-1-enyl)-thiophen-2-yl)-propionic acid]
IC50 [1]: 690 nM | IC50 [2]: 40 nM

O=C(CC/C=C/c1ccc(C[C@H](NC(=O)OCc2ccccc2)C(=O)O)s1)NC1=NCCCN1 [Example 15, (2S)-2-Benzyloxycarbonylamino-3-(5-(4-(1,4,5,6-tetrahydropyrimidin-2-ylcarbamoyl)-but-1-enyl)-thiophen-2-yl)-propionic acid]
IC50 [1]: 580 nM | IC50 [2]: 35 nM
